Among the data in ChEMBL document CHEMBL4364241, “Developments in the anticancer activity of structurally modified curcumin: An up-to-date review” (Eur J Med Chem, 2019) are IC50 values, retold here.

Experiment [1] in a line: Cytotoxicity against mitoxantrone resistant […] cells expressing BCRP after 15 mins by fluorescence assay. The format is functional, cell-based. Particulars: Canis lupus familiaris, MDCK2, 0.25 h.
In the next experiment the test system is SK-OV-3. Put plainly: Cytotoxicity against human SKOV3 Cells after 48 hrs by Cell Titer Blue assay. The format is functional, cell-based. The settings on record: SK-OV-3, 48 h. In general terms: Resazurin is reduced to fluorescent resorufin, in cell work by metabolically active cells.
For a further experiment, the system named is PC-3. The experiment is described as follows: Anticancer activity against human PC3 cells. The format is functional, cell-based.
The test system of another experiment is DU-145. The experiment is described as follows: Anticancer activity against human DU145 cells. The format is functional, cell-based.
For experiment [2], the system named is HCT-116. The experiment is described as follows: Cytotoxicity against human HCT116 Cells. The format is functional, cell-based.
In another experiment the test system is SW-620. Put plainly: Cytotoxicity against human SW620 Cells. The format is functional, cell-based.
In the next experiment the test system is MGC-803. Put plainly: Antiproliferative activity against human MGC803 cells after 24 hrs by MTT assay. The format is functional, cell-based. The settings on record: MGC-803, 24 h.
The test system of the next experiment is SGC-7901. Put plainly: Antiproliferative activity against human SGC7901 cells after 24 hrs by MTT assay. The format is functional, cell-based. Particulars: SGC-7901, 24 h. In general terms: Tetrazolium assays rely on reduction of a dye to a coloured formazan, in cell work by metabolically active cells.
For the next experiment, the system named is BGC-823. The experiment is described as follows: Antiproliferative activity against human BGC823 cells after 24 hrs by MTT assay. The settings on record: BGC-823, 24 h. The format is functional, cell-based.
For the next experiment, the system named is CT26. The experiment is described as follows: Cytotoxicity against mouse CT26 cells. The format is functional, cell-based.
A further experiment deals with HEp-2. The experiment is described as follows: Cytotoxicity against human Hep2 Cells. The format is functional, cell-based.
In a further experiment the test system is L02. Put plainly: Cytotoxicity against human HL-7702 cells. The format is functional, cell-based.
The test system of experiment [3] is MCF7. The experiment is described as follows: Cytotoxicity against human MCF7 Cells after 48 hrs by MTS assay. The format is functional, cell-based. Particulars: MCF7, 48 h.
The nature of experiment [4]: Cytotoxicity against human CCD-1059SK Cells after 48 hrs by MTS assay. The format is functional.
A further experiment deals with AGS. The experiment is described as follows: Cytotoxicity against human AGS Cells by MTT assay. The format is functional, cell-based.
The test system of experiment [5] is A549. Put plainly: Cytotoxicity against human A549 Cells by MTT assay. The format is functional, cell-based.
For experiment [6], the system named is MCF7. The experiment is described as follows: Induction of apoptosis in human MCF7 cells. The format is functional, cell-based.
Experiment [7] has as its system A549. Put plainly: Cytotoxicity against human A549 Cells after 24 to 48 hrs by MTT assay. The format is functional, cell-based.
The subject of a further experiment is K562. Put plainly: Cytotoxicity against human K562 Cells after 24 to 48 hrs by MTT assay. The format is functional, cell-based.
A further experiment has as its system SW480. The experiment is described as follows: Cytotoxicity against human SW480 Cells after 24 to 48 hrs by MTT assay. The format is functional, cell-based.
Experiment [8] has as its system HepG2. The experiment is described as follows: Cytotoxicity against human HepG2 Cells after 72 hrs by MTT assay. The format is functional, cell-based. The settings on record: HepG2, 72 h.
Another experiment concerns Caco-2. The experiment is described as follows: Cytotoxicity against human Caco2 Cells after 72 hrs by MTT assay. The format is functional, cell-based. Particulars: Caco-2, 72 h.
Another experiment deals with EA.hy 926. Put plainly: Cytotoxicity against human EAhy926 Cells after 72 hrs by MTT assay. The format is functional, cell-based. Particulars: EA.hy 926, 72 h.
The subject of the next experiment is HT-29. The experiment is described as follows: Cytotoxicity against human HT-29 Cells after 72 hrs by MTT assay. The format is functional, cell-based. Particulars: HT-29, 72 h.
The next experiment concerns CHO-K1. The experiment is described as follows: Cytotoxicity against […] Cells after 72 hrs by MTT assay. The format is functional, cell-based. The settings on record: Cricetulus griseus, CHO-K1, 72 h.
Another experiment deals with U373 MG. Put plainly: Cytotoxicity against human U373MG Cells 48 hrs by MTS assay. The format is functional, cell-based, U-373MG ATCC.
A short description of experiment [9]: Cytotoxicity against human GBM3 Cells 48 hrs by MTS assay. The format is functional. The settings on record: GBM3, 48 h.
Experiment [10] in a line: Cytotoxicity against human GBM4 Cells 48 hrs by MTS assay. The format is functional.
Experiment [11] is described as follows: Cytotoxicity against human GBM2 Cells 48 hrs by MTS assay. The format is functional. The settings on record: GBM2, 48 h.
The nature of experiment [12]: Cytotoxicity against human GBM1 Cells 48 hrs by MTS assay. The format is functional. The settings on record: GBM1, 48 h.
A further experiment has as its system U-87 MG. Put plainly: Cytotoxicity against human U87MG Cells 48 hrs by MTS assay. The format is functional, cell-based, U-87MG ATCC.
A short description of experiment [13]: Cytotoxicity against human GBM5 Cells 48 hrs by MTS assay. The format is functional.
The next experiment concerns U-251. The experiment is described as follows: Cytotoxicity against human U251MG cells after 48 hrs by MTS assay. The format is functional, cell-based. Particulars: U-251, 48 h.
Experiment [14] can be described thus: Cytotoxicity against human GBM6 Cells 48 hrs by MTS assay. The settings on record: GBM6, 48 h. The format is functional.
The next experiment relates to HSC-3. The experiment is described as follows: Cytotoxicity against human HSC3 cells. The format is functional, cell-based.
The next experiment has as its system HL-60. The experiment is described as follows: Cytotoxicity against human HL60 cells. The format is functional, cell-based.
The subject of another experiment is HSC-4. Put plainly: Cytotoxicity against human HSC4 cells. The format is functional, cell-based.
Another experiment deals with HSC-2. The experiment is described as follows: Cytotoxicity against human HSC2 cells. The format is functional, cell-based.
Experiment [15] relates to HepG2. Put plainly: Cytotoxicity against human HepG2 Cells after 48 hrs by MTT assay. The format is functional, cell-based. Particulars: HepG2, 48 h.
The subject of experiment [16] is MCF7. Put plainly: Cytotoxicity against human MCF7 Cells after 48 hrs by MTT assay. The settings on record: MCF7, 48 h. The format is functional, cell-based.
The test system of the next experiment is NIH3T3. Put plainly: Cytotoxicity against mouse 3T3 Cells after 48 hrs by MTT assay. The format is functional, cell-based. Particulars: NIH3T3, 48 h.
The nature of experiment [17]: Cytotoxicity against human LX2 Cells after 48 hrs by MTT assay. Particulars: LX-2, 48 h. The format is functional.
The test system of a further experiment is HeLa. Put plainly: Anticancer activity against human HeLa cells. The format is functional, cell-based.
The subject of experiment [18] is HCT-116. The experiment is described as follows: Antitumor activity against human HCT116 cells after 72 hrs by FMCA method. The format is functional, cell-based. Particulars: HCT-116, 72 h, pooled result: one value given for 5 cell lines, strains, targets or settings.

Broadly, the IC50 is the concentration that gives 50% inhibition. A higher IC50 goes with lower potency. Consider `COc1cc(/C=C2\CNC/C(=C\c3ccc(O)c(OC)c3)C2=O)ccc1O`, for which the IC50 in experiment [1] turned out to be 4300 nM.

On to `COc1ccc(/C=C/C(=O)/C=C(O)/C=C/c2ccc(OC)c(OC)c2)cc1OC`, for which the IC50 in the experiment on SK-OV-3 is 3.51 µM.

Compound `COc1ccc(/C=C/C(=O)/C=C(O)/C=C/c2ccc(OC)c(O)c2)cc1O` registered an IC50 in the experiment with SK-OV-3 of 5.58 µM.

`COc1ccc(OC)c(/C=C2\CNC/C(=C\c3cc(OC)ccc3OC)C2=O)c1` displayed an IC50 in experiment [1] of 1200 nM.

Regarding `COc1cc(/C=C/C(=O)/C=C/c2ccccc2[N+](=O)[O-])ccc1O`, the IC50 stood at 3.5 µM in the experiment with PC-3; 3.7 µM with DU-145; 2200 nM in the experiment on HCT-116 [2]; 2800 nM with SW-620; 2700 nM in the experiment with MGC-803; 4.3 µM in the experiment with SGC-7901. For the same compound, the IC50 in the experiment on BGC-823 was 3.3 µM; in the experiment on CT26, 1600 nM.

`CCN1C/C(=C\c2cc(OC)c(OC)c(OC)c2)C(=O)/C(=C/c2cc(OC)c(OC)c(OC)c2)C1`: the figures for the IC50 with HEp-2 and in the experiment with L02 were 16.6 µM and 46.8 µM, respectively.

For the compound `COc1ccc(/C=N/NC(=O)/C=C/c2ccc(O)c(OC)c2)cc1`, the half-maximal inhibitory concentration (IC50) in the experiment on MCF7 [3] came to 40.5 µM; in [4], 158 µM.

On to `COc1ccc(/C=C/C(=O)/C(CNc2ccc(S(N)(=O)=O)cc2)=C(O)/C=C/c2ccc(OC)cc2)cc1`, for which the 50% inhibitory concentration (IC50) in the experiment with AGS stood at 11.9 µM; in the experiment with A549 [5], 6.25 µM.

In turn, `COc1cc(/C=C/C(=O)C(=CC2CCN(C(=O)OC(C)(C)C)CC2)C(=O)/C=C/c2ccc(O)c(OC)c2)ccc1O` yielded an IC50 in the experiment with MCF7 [6] of 1500 nM.

With `O=C(/C=C/c1c[nH]c2ccccc12)CC(=O)/C=C/c1c[nH]c2ccccc12`, the IC50 was 25 to 27 µM with A549 [7], 32 to 34 µM in the experiment with K562 and 7 to 9 µM in the experiment on SW480.

Take `O=C(/C=C(O)/C=C/c1c[nH]c2ccccc12)/C=C/c1c[nH]c2ccccc12`: the IC50 came out at 10 µM with HepG2 [8]; 3.3 µM in the experiment on Caco-2; 11.7 µM with EA.hy 926; 11.5 µM in the experiment on HT-29; 7.9 µM with CHO-K1.

In the case of `C=CC(=O)NC(c1ccccc1)C(C(=O)/C=C/c1cccc(O)c1)C(=O)/C=C/c1cccc(O)c1` (configuration not stated), the IC50 is above 5 µM in the experiment with U373 MG; 1450 nM in experiment [9]; 1260 nM in experiment [10]; 1430 nM in [11]; 870 nM in experiment [12]; 380 nM in the experiment on U-87 MG. The results for the IC50 (in experiment [13]; in the experiment with U-251; in experiment [14]) were 920 nM, 330 nM and 2320 nM, respectively.

As for `CN1CCC(Cc2ccc(/C=C/C(=O)/C=C/c3ccc(CN4CCN(C)CC4)c(O)c3)cc2O)CC1`, the IC50 with HSC-3 stood at 3000 nM; with HL-60, 1800 nM; in the experiment with HSC-4, 3000 nM; with HSC-2, 3.9 µM.

On to `COc1ccc(/C=C/C(=O)Oc2ccc(/C=C/C(=O)CC(=O)/C=C/c3ccc(OC(=O)/C=C/c4ccc(OC)c(O)c4)c(OC)c3)cc2OC)cc1O`, for which the IC50 turned out to be 580 nM with HepG2 [15], 510 nM with MCF7 [16], 790 nM in the experiment on NIH3T3 and 630 nM in experiment [17].

`O=C(/C=C(O)/C=C/c1ccc(OCC(=O)NCC(=O)O)cc1)/C=C/c1ccc(OCC(=O)NCC(=O)O)cc1` had an IC50 with HeLa of 500 nM.

As to `COc1cc(/C=C/C(=O)/C=C(O)/C=C/c2ccc(OCC(=O)NCC(=O)O)c(OC)c2)ccc1OCC(=O)NCC(=O)O`, the IC50 in the experiment on HeLa was found to be 500 nM.

For `CCCOc1ccc(/C=C2\CN(C(=S)c3ccccc3)C/C(=C\c3ccc(OCCC)c(OC)c3)C2=O)cc1OC`, the IC50 in the experiment on HCT-116 [18] was 207 nM.

As for `O=C(/C=C(O)/C=C/c1cccnc1)/C=C/c1cccnc1`, the IC50 worked out at 8.3 µM in the experiment on HepG2 [8]; 6.9 µM in the experiment with Caco-2; 7.9 µM in the experiment with EA.hy 926; 8.2 µM with HT-29; 7.2 µM in the experiment on CHO-K1.
